In patent US12213978B2, “Madrasin-derivative compounds, composition and uses thereof for treating cancer” (INSTITUT GUSTAVE ROUSSY, priority 2018, dated 2025):

Columns and labels:
SF3B1 = SF3B1 (Homo sapiens, UniProt O75533+Q7RTV0); conditions: cited from earlier work
Solubility in water = assay type: physicochemical
[1] = tested on: MCA205 sarcoma cells expressing the intron-derived SL8 antigen; assay: T-cell assay: B3Z specific T-cell activation by MCA205 cells expressing the intron-derived SL8 antigen; assay type: cell-based, mouse
Description: (§1) MCA205 mouse sarcoma cell line is cultured at 37° C. under 5% CO2 in RPMI 1640 medium (Life Technologies) in the presence of 1% glutamine, 1% sodium pyruvate, 1% non-essential amino-acids, 1% penicillin/streptomycin and 10% FBS (Life Technologies). B16F10 mouse melanoma cell line is cultured at 37° C. under 5% CO2 in DMEM medium (Life Technologies) containing 1% glutamine, 1% penicillin/streptomycin and 10% FCS under standard conditions. Stable MCA205-Globin-SL8-intron cell line are cultured under the same condition as MCA205 cell line with additional 500 μg/ml G418 (Life Technologies) for selection. Stable B16F10-Globin-SL8-intron cell line are cultured under the same condition as B16F10 cell line with additional 500 μg/ml G418 (Life Technologies) for selection. The SL8/Kb-specific (B3Z) T-cell reporter hybridoma are cultured at 37° C. under 5% CO2 in RPMI 1640 medium (Life Technologies) in the presence of 1% L-glutamine, 1% penicillin/streptomycin, 50 μM β-mercaptoéthanol and 10% FCS.
(§2) MCA205 and B16F10 mouse cell lines are transfected with the plasmid YFP-Globin-SL8-intron or with the PCDNA3 empty plasmid (negative control) with the transfection reagent jetPRIME (Ozyme) or GeneJuice (Millipore) respectively according to each manufacturer protocol. Twenty-four hours after transfection, cells are treated with different doses of Madrasin (Sigma SML 1409), Madra.HCl (3·HCl) or the different compounds herein cited. Cells are then washed three times with PBS 1× and 5.10^4 tumor cells are co-cultured with 1.10^5 B3Z hybridoma in a 96-well plate. In positive control wells, 4 μg/ml of synthetic peptide SL8 is added. Cells are then incubated overnight at 37° C. with 5% CO2. The plate is centrifuged at 1200 rpm for 5 min, cells are washed twice with PBS 1× and lysed for 5 min at 4° C. under shaking in 0.2% TritonX-100, 0.2% DTT, 0.5M K2HPO4, 0.5M KH2PO4. The lysate is centrifuged at 3000 rpm for 10 min and the supernatant is transferred to a 96-well optiplate (OptiPlaque-96, PerkinElmer). A revelation buffer containing 10 mM MgCl2, 11.2 mM β-mercaptoethanol, 0.0015% IGEPAL® CA-630 and 40 μM 4-Methylumbelliferyl β-D-Galactopyranoside (MUG) in PBS is added and the plate is incubated at room temperature for 3 hours. Finally, the β-galactosidase activity is measured using the FLUOstar OPTIMA (BMG LABTECH Gmbh, 30 Offenburg, Germany). Results are expressed as mean±SEM. *P<0.05, **P<0.01, ***P<0.001 (unpaired student t test).

[2] = tested on: MCA205 sarcoma cells expressing the globin-SL8-intron construct; assay: Tumor challenge: MCA205 globin-SL8-intron tumors in immunocompetent C57BL/6 mice; assay type: in vivo, mouse; conditions: for survivors: 120 days after tumor inoculation
Description: (§3) Wild type MCA205 sarcoma cells or MCA205 sarcoma cells expressing the globin-SL8-intron construct (MCA205 globin-SL8-intron) were subcutaneously inoculated into the flank of immunocompetent C57BL/6 mice subsequently injected intraperitoneally with 20 mg/kg or 40 mg/kg of Madra.HCl at day 4, 7, 10 and 14 post tumor inoculation. Tumor size was assessed every 3 to 4 days until the established ethical endpoints were reached. The panel C represents the growth curve of MCA205 sarcoma cells expressing the globin-SL8-intron construct (MCA205 globin-SL8-intron), the panel D represents the tumor size at day 25. The panel E represents the growth curve of Wild type MCA205 sarcoma cells (MCA205 WT), the panel F represents the tumor size at day 21. Data are given as mean±SEM. *p<0.05, **p<0.01 (ANOVA with Tukey's multiple comparison test comparing all groups).
(§4) Wild type MCA205 sarcoma cells or MCA205 sarcoma cells expressing the globin-SL8-intron construct (MCA205 globin-SL8-intron) were subcutaneously inoculated into the flank of immunocompetent C57BL/6 mice subsequently injected intraperitoneally with 20 mg/kg of EYP59 at day 4, 7, 10 and 14 post tumor inoculation. Tumor size was assessed every 3 to 4 days until the established ethical endpoints were reached (A). The upper panel B represents the growth curve of MCA205 sarcoma cells expressing the globin-SL8-intron construct (MCA205 globin-SL8-intron), the lower panel B represents the tumor size at day 23. The upper panel C represents the growth curve of Wild type MCA205 sarcoma cells (MCA205 WT), the lower panel C represents the tumor size at day 19. The panel D represents the growth curve of Wild type MCA205 sarcoma cells (MCA205 WT) in immunodeficient nu/nu mice with the same settings as previously described for the immunocompetent mice. Data are given as mean±SEM. *p<0.05, **p<0.01 (ANOVA with Tukey's multiple comparison test comparing all groups).
(§5) C57Bl/6J female mice are obtained from Harlan Laboratories Ltd, Switzerland. 7 week-old mice are injected subcutaneously into the right flank with 1.10^5 MCA205 sarcoma or B16F10 melanoma cells or 1.5.10^5 MCA205 globin-SL8-intron or B16F10 globin-SL8-intron cells. Sarcoma cells are injected in 100 μL sterile PBS while melanoma cells are injected in 50:50 PBS:Matrigel to prevent tumor cell dissemination. Madra.HCl is injected 4, 7, 10 and 14 days post tumor inoculation, in 100 μL H2O+[…] (2-Hydroxypropyl)-β-cyclodextrin (w/v). In the same manner EYP59 (compound 7) is injected 4, 7, 10 and 14 days post tumor inoculation, in 100 μL H2O. Area of the tumor is recorded every 3 to 4 days until the tumor reaches the ethical end points. […] Results are expressed as mean±SEM. *p<0.05, **P<0.01, ***P<0.001 (ANOVA with Tukey's multiple comparison test comparing all groups).

[3] = tested on: B16F10 melanoma cells expressing the intron-derived SL8 antigen; assay: T-cell assay: B3Z specific T-cell activation by B16F10 cells expressing the intron-derived SL8 antigen; assay type: cell-based, mouse
Description: as §1, §2

B16F10 WT cells = assay: Re-challenge of tumor-free mice at day 100 with B16F10 WT cells; assay type: in vivo, mouse; conditions: mice with complete tumor regression after treatment, re-challenged 100 days later, left flank
Description: (§6) Growth curve of MCA205 globin-SL8-intron cells and B16F10 WT cells inoculated at day 100 into the right and the left flank, respectively, of C57BL/6 mice which experienced complete tumor regression after treatment with Madra.HCl.
(§7) Finally, mice which were inoculated with MCA205 tumor cells expressing the Globin-intron-SL8 construct, and that experienced complete tumor regression after treatment with Madra.HCl as described above were re-challenged 100 days later with MCA205 tumor cells expressing the Globin-intron-SL8 construct on the right flank and with B16F10 tumor cells on the left flank.

[4] = tested on: Wild type MCA205 sarcoma cells; assay: Tumor challenge: wild type MCA205 tumors in immunocompetent C57BL/6 mice; assay type: in vivo, mouse
Description: as §3, §4
Wild type MCA205 sarcoma cells were subcutaneously inoculated into the flank of immunocompetent C57BL/6 mice subsequently injected intratumorally with 2.5 mg/kg of EYP59 at day 4, 7, 10 and 14 post tumor inoculation or intravenously with 5 mg/kg of EYP59 at day 4, 7, 10 and 14 post tumor inoculation. The upper panel A represents the growth curve of wild type MCA205 sarcoma cells, the lower panel A represents the tumor size at day 21. The upper panel B represents the growth curve of wild type MCA205 sarcoma cell, the lower panel B represents the tumor size at day 25. Data are given as mean±SEM. *p<0.05, **p<0.01 (ANOVA with Tukey's multiple comparison test comparing all groups).
as §5

[5] = tested on: MCA205 globin-SL8-intron cells; assay: Re-challenge of tumor-free mice at day 100 with MCA205 globin-SL8-intron cells; assay type: in vivo, mouse; conditions: mice with complete tumor regression after treatment, re-challenged 100 days later, right flank
Description: as §6, §7

[6] = tested on: Wild type MCA205 sarcoma cells; assay: Tumor challenge: wild type MCA205 tumors in immunodeficient nu/nu mice; assay type: in vivo, mouse; conditions: 20 mg/kg
Description: as §4
In order to assess the requirement of the immune response for this effect, inventors tested the impact of 20 mg/kg EYP59 treatment in immunodeficient nu/nu mice with the same settings as previously described and observed that it has no effect on the tumor growth (FIG. 7D).

CC[C@H](O)[C@@H](C)[C@H]1O[C@@H]1C[C@@](C)(O)/C=C/C=C(\C)[C@H]1OC(=O)C[C@H](O)CC[C@@](C)(O)[C@@H](OC(=O)N2CCN(C3CCCCCC3)CC2)/C=C/[C@@H]1C [E7107]
outcome of testing in human (SF3B1): stopped because of problems of toxicity

COc1ccc2c(C)nc(Nc3nc(C)c(C)c(=O)[nH]3)nc2c1.Cl [Madra.HCl, Madrasin hydrochloride]
solubility in water (Solubility in water): able to be dissolved in water
PTPs-dependent antigen presentation (B3Z T-cell activation) ([1]; MCA205, 5 μM or 10 μM, dose dependent): increase
survivors ([2]; 20 mg/kg intraperitoneally): around 15%
reduction of tumor growth ([2]; 20 mg/kg intraperitoneally, day 27 after challenge): 50%
survivors ([2]; 40 mg/kg intraperitoneally): around 25%
PTPs-dependent antigen presentation (B3Z T-cell activation) ([3]; B16F10, 5 μM or 10 μM, dose dependent): increase
tumor growth after re-challenge (B16F10 WT cells): grew over time
reduction of tumor growth ([4]; 20 mg/kg intraperitoneally, day 21 after challenge): 40%
reduction of tumor growth ([4]; 40 mg/kg intraperitoneally, day 21 after challenge): 40%
tumor growth after re-challenge [5]: did not grow

Cc1nc(Nc2nc(C)c3ccc(OP(=O)(O)O)cc3n2)[nH]c(=O)c1C [EYP59, Sodium 2-((4,5-dimethyl-6-oxo-1,6-dihydropyrimidin-2-yl)amino)-4-methylquinazolin-7-yl Phosphate]
PTP-SL8 presentation (B3Z T-cell activation) ([1]; MCA205, 60 μM, O/N): increase
reduction of tumor growth ([2]; 20 mg/kg intraperitoneally, day 23 after challenge): 85%
PTP-SL8 presentation (B3Z T-cell activation) ([3]; B16F10, 60 μM, O/N): increase
effect on the tumor growth [6]: no effect
reduction of tumor growth ([4]; 2.5 mg/kg intratumorally, day 21 after challenge): 75%
reduction of tumor growth ([4]; 5 mg/kg intravenously, day 25 after challenge): 80%
reduction of tumor growth ([4]; 20 mg/kg intraperitoneally, day 19 after challenge): 70%
